target: Aurora B/INCENP (Homo sapiens, UniProt Q96GD4); assay: Determination of inhibition of AIK: Aurora B/INCENP Direct Fluorescence Polarization (IMAP) assay; format: biochemical; settings: 10 uM ATP, 0.8 nM Aurora B/INCENP, 45 min at room temperature; read-out: IC50 of Exemplified Compounds Against AIK B
Procedure: Detection of the reaction product is performed by addition of Progressive IMAP binding reagent (Molecular Devices). Reaction product may be determined quantitatively by FP using an Analyst HT plate reader (Molecular Devices) with an excitation wavelength at 485 nm and emission at 530 nm and using a Fluorescein 505 dichroic mirror.
The assay reaction may be initiated as follows: 2 ul of (3×) 300 nM Fl-Peptide/30 uM ATP was added to each well of the plate, followed by the addition of 2 ul of (3×) inhibitor (2 fold serial dilutions for 11 data points for each inhibitor) containing 15% DMSO. Two microliters of (3×) 2.4 nM AuroraB/INCENP solution may be added to initiate the reaction (final enzyme concentration was 0.8 nM for Aurora B/INCENP). The reaction mixture may then be incubated at room temperature for 45 min, and quenched and developed by addition of 20 ul of 1 to 400 diluted Progressive IMAP binding reagent in 1× proprietary Progressive IMAP binding buffer A. Fluorescence polarization readings of the resulting reaction mixtures may be measured after a 60-minute incubation at room temperature.
IC50 values may be calculated by non-linear curve fitting of the compound concentrations and fluorescent polarization values to the standard IC50 equation.

Aurora B/INCENP, sequence (Q96GD4 whole entry): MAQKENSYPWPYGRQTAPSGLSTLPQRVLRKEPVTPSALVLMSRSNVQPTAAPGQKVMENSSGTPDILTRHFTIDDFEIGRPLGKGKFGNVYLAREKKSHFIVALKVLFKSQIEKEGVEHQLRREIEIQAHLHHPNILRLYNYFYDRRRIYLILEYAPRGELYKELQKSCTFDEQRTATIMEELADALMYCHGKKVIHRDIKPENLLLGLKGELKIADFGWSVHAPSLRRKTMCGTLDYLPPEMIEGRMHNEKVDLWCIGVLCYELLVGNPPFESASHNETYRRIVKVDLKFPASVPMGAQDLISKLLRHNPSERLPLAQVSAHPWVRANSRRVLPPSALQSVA
Aurora B/INCENP, sequence (Q9NQS7 whole entry partner): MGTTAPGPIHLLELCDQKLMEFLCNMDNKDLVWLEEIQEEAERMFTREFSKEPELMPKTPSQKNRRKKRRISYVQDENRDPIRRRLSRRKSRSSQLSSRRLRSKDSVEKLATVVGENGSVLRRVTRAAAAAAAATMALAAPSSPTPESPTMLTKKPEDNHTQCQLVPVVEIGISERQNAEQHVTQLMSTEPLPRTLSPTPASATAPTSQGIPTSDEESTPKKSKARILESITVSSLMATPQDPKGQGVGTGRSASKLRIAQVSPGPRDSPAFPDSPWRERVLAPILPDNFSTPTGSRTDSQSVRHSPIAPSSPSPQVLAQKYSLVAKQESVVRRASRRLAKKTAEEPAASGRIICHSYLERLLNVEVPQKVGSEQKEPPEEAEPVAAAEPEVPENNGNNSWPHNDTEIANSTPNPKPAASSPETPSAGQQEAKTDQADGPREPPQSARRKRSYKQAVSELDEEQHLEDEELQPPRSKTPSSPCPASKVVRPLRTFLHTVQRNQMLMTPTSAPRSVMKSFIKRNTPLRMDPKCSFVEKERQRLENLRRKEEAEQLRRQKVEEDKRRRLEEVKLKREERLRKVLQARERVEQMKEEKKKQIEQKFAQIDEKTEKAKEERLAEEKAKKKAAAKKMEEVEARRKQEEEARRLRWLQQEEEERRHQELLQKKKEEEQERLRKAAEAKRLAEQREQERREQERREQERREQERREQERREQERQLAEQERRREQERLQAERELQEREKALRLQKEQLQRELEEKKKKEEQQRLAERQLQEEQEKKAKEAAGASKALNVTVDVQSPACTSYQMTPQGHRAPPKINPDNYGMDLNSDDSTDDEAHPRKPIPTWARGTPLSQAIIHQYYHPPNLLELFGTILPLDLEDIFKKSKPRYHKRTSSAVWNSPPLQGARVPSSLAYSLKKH

First: c1ccc(-c2cccc3[nH]c4ncccc4c23)cc1 [Compound 5, 5-phenyl-9H-pyrido[2,3-b]indole]
Second: CCS(=O)(=O)c1cccc(-c2ccc(C)c3[nH]c4ncc(C)cc4c23)c1 [Compound 18, 5-(3-(ethylsulfonyl)phenyl)-3,8-dimethyl-9H-pyrido[2,3-b]indole]
The IC50 of the first is higher: at least 11 nM for the first, 6 to 10 nM for the second. The second is the more potent here.

`CCS(=O)(=O)c1cccc(-c2cnc(NCCCN(C)C)c3[nH]c4ncc(C)cc4c23)c1` [Compound 41, N′-[5-(3-Ethanesulfonyl-phenyl)-3-methyl-9H-dipyrido[2,3-b;4′,3′-d]pyrrol-8-yl]-N,N-dimethyl-propane-1,3-diamine] and `CCS(=O)(=O)c1cccc(-c2cnc(OCCCN(C)C)c3[nH]c4ncc(C)cc4c23)c1` [Compound 52, {3-[5-(3-Ethanesulfonyl-phenyl)-3-methyl-9H-dipyrido[2,3-b;4′,3′-d]pyrrol-8-yloxy]-propyl}-dimethyl-amine] fall in the same range of IC50: 6 to 10 nM for the first, 6 to 10 nM for the second.

`CCOc1ncc(-c2cccc(S(=O)(=O)CC)c2)c2c1[nH]c1ncc(C)cc12` [Compound 51, 5-(3-Ethanesulfonyl-phenyl)-8-ethoxy-3-methyl-9H-dipyrido[2,3-b;4′,3′-d]pyrrole] and `CCOc1ccc(-c2cccc(S(=O)(=O)CC)c2)c2c1[nH]c1ncc(C)cc12` [Compound 171, 8-ethoxy-5-(3-(ethylsulfonyl)phenyl)-3-methyl-9H-pyrido[2,3-b]indole] fall in the same range of IC50: 6 to 10 nM for the first, 6 to 10 nM for the second.

`CCS(=O)(=O)c1cccc(-c2cnc(OCC3CCN(C)CC3)c3[nH]c4ncc(C)cc4c23)c1` [Compound 54, 5-(3-Ethanesulfonyl-phenyl)-3-methyl-8-(1-methyl-piperidin-4-ylmethoxy)-9H-dipyrido[2,3-b;4′,3′-d]pyrrole] and `CCS(=O)(=O)c1cccc(-c2ccc(OCC3CCN(C)CC3)c3[nH]c4ncc(C)cc4c23)c1` [Compound 177, 5-(3-(ethylsulfonyl)phenyl)-3-methyl-8-((1-methylpiperidin-4-yl)methoxy)-9H-pyrido[2,3-b]indole] fall in the same range of IC50: 6 to 10 nM for the first, 6 to 10 nM for the second.

Compared with `CCS(=O)(=O)c1cccc(-c2cc(C(=O)NC3CCN(C)CC3)c(C)c3[nH]c4ncc(C)cc4c23)c1` [Compound 88, 5-(3-(ethylsulfonyl)phenyl)-3,8-dimethyl-N-(1-methylpiperidin-4-yl)-9H-pyrido[2,3-b]indole-7-carboxamide], `CCN1CCC(NC(=O)c2cc(-c3cccc(S(=O)(=O)CC)c3)c3c([nH]c4ncc(C)cc43)c2C)CC1` [Compound 105, N-(1-ethylpiperidin-4-yl)-5-(3-(ethylsulfonyl)phenyl)-3,8-dimethyl-9H-pyrido[2,3-b]indole-7-carboxamide] is higher in IC50: 6 to 10 nM for the first, at least 11 nM for the second. The first is the more potent here.

`CCS(=O)(=O)c1cccc(-c2cc(C(=O)NCCOC)c(C)c3[nH]c4ncc(C)cc4c23)c1` [Compound 90, N-(2-(methoxy)ethyl)-5-(3-(ethylsulfonyl)phenyl)-3,8-dimethyl-9H-pyrido[2,3-b]indole-7-carboxamide] and `CCS(=O)(=O)c1cccc(-c2cc(C(=O)NCCN(C)C)c(C)c3[nH]c4ncc(C)cc4c23)c1` [Compound 113] fall in the same range of IC50: 6 to 10 nM for the first, 6 to 10 nM for the second.

`CCS(=O)(=O)c1cccc(-c2cc(C(=O)NCCCN3CCN(C)CC3)c(C)c3[nH]c4ncc(C)cc4c23)c1` [Compound 95, 5-(3-(ethylsulfonyl)phenyl)-3,8-dimethyl-N-(3-(4-methylpiperazin-1-yl)propyl)-9H-pyrido[2,3-b]indole-7-carboxamide] and `CCS(=O)(=O)c1cccc(-c2cc(C(=O)NCC3CCN(C)CC3)c(C)c3[nH]c4ncc(C)cc4c23)c1` [Compound 114, 5-(3-(ethylsulfonyl)phenyl)-3,8-dimethyl-N-((1-methylpiperidin-4-yl)methyl)-9H-pyrido[2,3-b]indole-7-carboxamide] cannot be ordered by IC50: at least 11 nM for the first, at least 11 nM for the second.

First: Cc1cnc2[nH]c3c(C)c(C(=O)NCCN(C)C)cc(-c4cccc(NC(=O)C5CC5)c4)c3c2c1 [Compound 112, 5-(3-(cyclopropanecarboxamido)phenyl)-N-(2-(dimethylamino)ethyl)-3,8-dimethyl-9H-pyrido[2,3-b]indole-7-carboxamide]
Second: Cc1cnc2[nH]c3c(C)c(C(=O)NC4CCN(C)CC4)cc(-c4cccc(NC(=O)C5CC5)c4)c3c2c1 [Compound 120, 5-(3-(cyclopropanecarboxamido)phenyl)-3,8-dimethyl-N-(1-methyl-piperidin-4-yl)-9H-pyrido[2,3-b]indole-7-carboxamide]
The IC50 of the first is higher: at least 11 nM for the first, 6 to 10 nM for the second. The second is the more potent here.

`CCS(=O)(=O)c1cccc(-c2cc(C(=O)N[C@H]3CCCN(C)C3)c(C)c3[nH]c4ncc(C)cc4c23)c1` [Compound 117, (S)-5-(3-(ethylsulfonyl)phenyl)-3,8-dimethyl-N-(1-methylpiperidin-3-yl)-9H-pyrido[2,3-b]indole-7-carboxamide] and `CCNS(=O)(=O)c1cccc(-c2cc(C(=O)NC3CCN(C)CC3)c(C)c3[nH]c4ncc(C)cc4c23)c1` [Compound 153] cannot be ordered by IC50: at least 11 nM for the first, at least 11 nM for the second.

First: CCS(=O)(=O)c1cccc(-c2cc(C(=O)NCCN(C)C)cc3[nH]c4ncc(C)cc4c23)c1 [Compound 142, 5-(3-Ethanesulfonyl-phenyl)-3-methyl-9H-pyrido[2,3-b]indole-7-carboxylic acid (2-dimethylamino-ethyl)-amide]
Second: CCS(=O)(=O)c1cccc(-c2ccc(OCC(F)(F)F)c3[nH]c4ncc(C)cc4c23)c1 [Compound 173, 5-(3-(ethylsulfonyl)phenyl)-3-methyl-8-(2,2,2-trifluoroethoxy)-9H-pyrido[2,3-b]indole]
The IC50 of the first is lower: 6 to 10 nM for the first, at least 11 nM for the second. The first is the more potent here.

`Cc1cnc2[nH]c3c(C)c(C(=O)NC4CCN(C)CC4)cc(-c4cccc(S(=O)(=O)C5CC5)c4)c3c2c1` [Compound 154, 5-(3-(cyclopropylsulfonyl)phenyl)-3,8-dimethyl-N-(1-methylpiperidin-4-yl)-9H-pyrido[2,3-b]indole-7-carboxamide] and `Cc1cnc2[nH]c3c(OCC4CCN(C)CC4)ccc(-c4cccc(S(=O)(=O)C5CC5)c4)c3c2c1` [Compound 179, 5-(3-(cyclopropylsulfonyl)phenyl)-3-methyl-8-((1-methylpiperidin-4-yl)methoxy)-9H-pyrido[2,3-b]indole] fall in the same range of IC50: 6 to 10 nM for the first, 6 to 10 nM for the second.

`COc1ccc(-c2cccc(NC(=O)C3CC3)c2)c2c1[nH]c1ncc(C)cc12` [Compound 163, N-(3-(8-methoxy-3-methyl-9H-pyrido[2,3-b]indol-5-yl)phenyl)cyclopropanecarboxamide] and `Cc1cnc2[nH]c3c(OCCCN(C)C)ccc(-c4cccc(NC(=O)C5CC5)c4)c3c2c1` [Compound 195, N-(3-(8-(3-(dimethylamino)propoxy)-3-methyl-9H-pyrido[2,3-b]indol-5-yl)phenyl)cyclopropanecarboxamide] cannot be ordered by IC50: at least 11 nM for the first, at least 11 nM for the second.

First: Cc1cnc2[nH]c3c(OCC4CCN(C)CC4)ccc(-c4cccc(C(=O)NC5CC5)c4)c3c2c1 [Compound 178, N-cyclopropyl-3-(3-methyl-8-((1-methylpiperidin-4-yl)methoxy)-9H-pyrido[2,3-b]indol-5-yl)benzamide]
Second: Cc1cnc2[nH]c3c(OCC4CCN(C)CC4)ccc(-c4cccc(NC(=O)C5CC5)c4)c3c2c1 [Compound 182, N-(3-(3-methyl-8-((1-methylpiperidin-4-yl)methoxy)-9H-pyrido[2,3-b]indol-5-yl)phenyl)cyclopropanecarboxamide]
The IC50 of the first is higher: at least 11 nM for the first, 6 to 10 nM for the second.
